# From BindingDB's records for doi:10.1016/j.bmcl.2019.126932 (Japan Tobacco, 2020)
# Columns and labels:
# [1] = Inhibition of NS5A in Hepatitis C virus subtype 1a replicon infected in human HuH7 cells assessed as reduction in viral replication
# [2] = Inhibition of NS5A in Hepatitis C virus subtype 1b replicon infected in human HuH7 cells assessed as reduction in viral replication
# [3] = Inhibition of NS5A in Hepatitis C virus subtype 2a replicon infected in human HuH7 cells assessed as reduction in viral replication
EC50 [1] [nM],EC50 [2] [nM],EC50 [3] [nM],SMILES
34,0.025,–,O=C(CCCNC(=O)OCc1ccccc1)N[C@@H](C(=O)N1CCC[C@H]1c1nc(-c2ccc(-c3ccc(NC(=O)c4ccccc4)cc3)cc2)c[nH]1)c1ccccc1
2400,–,–,CCCC(=O)Nc1ccc(-c2ccc(-c3c[nH]c([C@@H]4CCCN4C(=O)[C@H](NC(=O)c4ccccc4)c4ccccc4)n3)cc2)cc1
353,0.043,–,CCCC(=O)Nc1ccc(-c2ccc(-c3c[nH]c([C@@H]4CCCN4C(=O)[C@H](NC(=O)N4CC[C@@H](NC(=O)OC)C4)c4ccccc4)n3)cc2)cc1
131,–,–,CCCC(=O)Nc1ccc(-c2ccc(-c3c[nH]c([C@@H]4CCCN4C(=O)[C@H](NC(=O)c4ccc(NC(=O)OCc5ccccc5)cc4)c4ccccc4)n3)cc2)cc1
2800,0.34,–,CCCC(=O)Nc1ccc(-c2ccc(-c3c[nH]c([C@@H]4CCCN4C(=O)[C@H](NC(=O)OC)c4ccccc4)n3)cc2)cc1
353,–,–,CCCC(=O)Nc1ccc(-c2ccc(-c3c[nH]c([C@@H]4CCCN4C(=O)[C@H](NC(=O)N4CCCC4)c4ccccc4)n3)cc2)cc1
0.039,0.028,0.018,COC1CCN(C(=O)Nc2ccc(-c3ccc(-c4c[nH]c([C@@H]5CCCN5C(=O)[C@H](NC(=O)N5CC[C@@H](NC(=O)OCc6ccccc6)C5)c5ccccc5)n4)cc3)cc2)CC1
2.3,0.02,–,COC1CCN(C(=O)Nc2ccc(-c3ccc(-c4c[nH]c([C@@H]5CCCN5C(=O)[C@H](NC(=O)CCCNC(=O)OCc5ccccc5)c5ccccc5)n4)cc3)cc2)CC1
8.1,0.0049,–,COC1CCC(C(=O)Nc2ccc(-c3ccc(-c4c[nH]c([C@@H]5CCCN5C(=O)[C@H](NC(=O)CCCNC(=O)OCc5ccccc5)c5ccccc5)n4)cc3)cc2)CC1 (stereo partly drawn)
> 10000,> 10000,–,COC(=O)N[C@@H](C(=O)N1CCC[C@H]1c1ncc[nH]1)c1ccccc1
82,0.037,–,CCCC(=O)Nc1ccc(-c2ccc(-c3c[nH]c([C@@H]4CCCN4C(=O)[C@H](NC(=O)N4CC[C@H](NC(=O)OCc5ccccc5)C4)c4ccccc4)n3)cc2)cc1
3.5,0.0042,–,COCc1ccc(C(=O)Nc2ccc(-c3ccc(-c4c[nH]c([C@@H]5CCCN5C(=O)[C@H](NC(=O)CCCNC(=O)OCc5ccccc5)c5ccccc5)n4)cc3)cc2)cc1
56,0.15,–,CCCC(=O)Nc1ccc(-c2ccc(-c3c[nH]c([C@@H]4CCCN4C(=O)[C@H](NC(=O)CCCNC(=O)OCc4ccccc4)c4ccccc4)n3)cc2)cc1
1.1,0.0048,–,CCCC(=O)Nc1ccc(-c2ccc(-c3c[nH]c([C@@H]4CCCN4C(=O)[C@H](NC(=O)N4CC[C@@H](NC(=O)OCc5ccccc5)C4)c4ccccc4)n3)cc2)cc1
2800,57,–,COC(=O)N[C@@H](C(=O)N1CCC[C@H]1c1nc(-c2ccc(-c3ccccc3)cc2)c[nH]1)c1ccccc1
44,0.076,–,CCCC(=O)Nc1ccc(-c2ccc(-c3c[nH]c([C@@H]4CCCN4C(=O)[C@H](NC(=O)c4cccc(NC(=O)OCc5ccccc5)c4)c4ccccc4)n3)cc2)cc1
247,–,–,CCCC(=O)Nc1ccc(-c2ccc(-c3c[nH]c([C@@H]4CCCN4C(=O)[C@H](NC(=O)N4CCC[C@H](NC(=O)OCc5ccccc5)C4)c4ccccc4)n3)cc2)cc1
0.098,0.014,–,COC(=O)N[C@@H](C(=O)N1CCC[C@H]1c1ncc(-c2ccc(-c3ccc(-c4cnc([C@@H]5CCCN5C(=O)[C@H](NC(=O)OC)c5ccccc5)[nH]4)cc3)cc2)[nH]1)c1ccccc1
642,–,–,CCCC(=O)Nc1ccc(-c2ccc(-c3c[nH]c([C@@H]4CCCN4C(=O)[C@H](NC(=O)CCCCCCc4ccccc4)c4ccccc4)n3)cc2)cc1
1300,–,–,CCCC(=O)Nc1ccc(-c2ccc(-c3c[nH]c([C@@H]4CCCN4C(=O)[C@H](NC(=O)CCCc4ccccc4)c4ccccc4)n3)cc2)cc1
614,–,–,CCCC(=O)Nc1ccc(-c2ccc(-c3c[nH]c([C@@H]4CCCN4C(=O)[C@H](NC(=O)c4ccccc4NC(=O)OCc4ccccc4)c4ccccc4)n3)cc2)cc1
100,0.023,–,CCCC(=O)Nc1ccc(-c2ccc(-c3c[nH]c([C@@H]4CCCN4C(=O)[C@H](NC(=O)N4CCC[C@@H](NC(=O)OCc5ccccc5)C4)c4ccccc4)n3)cc2)cc1
